We go through 22 molecules from ChEMBL document CHEMBL5360532, “Current scenario of quinolone hybrids with potential antibacterial activity against ESKAPE pathogens” (Eur J Med Chem, 2023).

Common to all, as to type: functional
Test [1] has as its system Staphylococcus aureus. The experiment in a line: Antibacterial activity against Staphylococcus aureus ATCC 25923 assessed as bacterial growth inhibition measured after 18 hrs by agar dilution assay. (In agar dilution the substance is mixed into plates at graded concentrations.)
The test system of test [2] is Escherichia coli. The experiment in a line: Antibacterial activity against Escherichia coli ATCC 25922 assessed as bacterial growth inhibition measured after 18 hrs by agar dilution assay.
Test [3] relates to Escherichia coli. The experiment in a line: Potency index, ratio of ciprofloxacin MIC to test compound MIC for antimicrobial activity against Escherichia coli assessed as bacterial growth inhibition by agar cup diffusion assay.
The subject of test [4] is Staphylococcus aureus. The experiment in a line: Antibacterial activity against Staphylococcus aureus assessed as bacterial growth inhibition by broth microdilution assay.
Another test deals with Pseudomonas aeruginosa. Kind of test: Antibacterial activity against Pseudomonas aeruginosa assessed as bacterial growth inhibition by broth microdilution assay. On the technique in general: In broth dilution the organism is exposed to a series of concentrations in liquid medium.
Test [5] relates to Staphylococcus aureus. Kind of test: Antibacterial activity against clinical isolate methicillin resistant Staphylococcus aureus assessed as bacterial growth inhibition by microdilution assay.
Test [6] deals with Staphylococcus aureus. The experiment in a line: Antibacterial activity against Staphylococcus aureus ATCC 25923 assessed as bacterial growth inhibition by microdilution assay.
Test [7] concerns Escherichia coli. The experiment in a line: […] activity against Escherichia coli assessed as bacterial growth inhibition by broth dilution assay.
The test system of another test is Klebsiella pneumoniae. Kind of test: Antibacterial activity against Klebsiella pneumoniae assessed as bacterial growth inhibition by two fold microdilution assay.
Test [8] relates to Escherichia coli. The experiment in a line: Antibacterial activity against Escherichia coli ATCC 8739 assessed as bacterial growth inhibition by two fold microdilution assay.
The subject of test [9] is Staphylococcus aureus. Kind of test: Antibacterial activity against Staphylococcus aureus ATCC 6538P assessed as bacterial growth inhibition by two fold microdilution assay.
Test [10] relates to Escherichia coli. Kind of test: Antibacterial activity against Escherichia coli assessed as bacterial growth inhibition by broth microdilution assay.
Test [11] relates to Escherichia coli. The experiment in a line: Antibacterial activity against Escherichia coli assessed as bacterial growth inhibition by two fold microdilution assay.
Test [12] relates to Staphylococcus aureus. The experiment in a line: Antibacterial activity against Staphylococcus aureus assessed as bacterial growth inhibition by two fold microdilution assay.
Another test deals with Enterococcus faecalis. The experiment in a line: Antibacterial activity against Enterococcus faecalis assessed as bacterial growth inhibition by broth microdilution assay.
For test [13], the system named is Escherichia coli. Kind of test: Antibacterial activity against fluoroquinolone Escherichia coli assessed as bacterial growth inhibition by broth microdilution assay.
The subject of test [14] is Staphylococcus aureus. The experiment in a line: Antibacterial activity against methicillin resistant Staphylococcus aureus ATCC 33591 assessed as bacterial growth inhibition measured after 16 to 18 hrs by serial dilution method. The conditions noted are these: time 16-18 hrs.

Converted amounts (≈) assume the structure as drawn.

By MIC is commonly meant the lowest concentration that inhibits growth of the organism. Regarding `O=C(O)c1cn(C2CC2)c2cc(N3CCN(Cc4cn(-c5ccccc5)nn4)CC3)c(F)cc2c1=O`, the MIC in the test on Staphylococcus aureus [1] and with Escherichia coli [2] was 0.12 mg/L (≈ 0.246 µM) throughout.

Consider `CCn1cc(C(=O)O)c(=O)c2cc(F)c(N3CCN(Cc4cn(-c5ccc([N+](=O)[O-])cc5)nn4)CC3)cc21`, for which the MIC with Staphylococcus aureus [1] and in the test on Escherichia coli [2] was 0.12 mg/L (≈ 0.23 µM) throughout.

Consider `CCn1cc(C(=O)O)c(=O)c2cc(F)c(N3CCN(Cc4cn(-c5ccccc5)nn4)CC3)cc21`, for which the MIC in the test with Staphylococcus aureus [1] and in the test with Escherichia coli [2] was 0.12 mg/L (≈ 0.252 µM) in each case.

Take `Cc1ccc(-n2cc(CN3CCN(c4cc5c(cc4F)c(=O)c(C(=O)O)cn5C4CC4)CC3)nn2)cc1`: the MIC in the test with Staphylococcus aureus [1] and with Escherichia coli [2] was 0.12 mg/L (≈ 0.239 µM) throughout.

As for `CCn1cc(C(=O)O)c(=O)c2cnc(N3CCN(Cc4cn(-c5ccc([N+](=O)[O-])cc5)nn4)CC3)nc21`, the MIC in the test on Staphylococcus aureus [1] and with Escherichia coli [2] was 0.12 mg/L (≈ 0.237 µM) each time.

As for `CCn1cc(C(=O)O)c(=O)c2cnc(N3CCN(Cc4cn(-c5ccccc5)nn4)CC3)nc21`, the MIC with Staphylococcus aureus [1] and with Escherichia coli [2] was 0.12 mg/L (≈ 0.261 µM) each time.

As to `CCn1nnnc1SCCC(=O)N1CCN(c2cc3c(cc2F)c(=O)c(C(=O)O)cn3C2CC2)CC1`, the Ratio in the test on Escherichia coli [3] is recorded as 2.

With `COc1cc(-n2nnnc2SCCC(=O)N2CCN(c3cc4c(cc3F)c(=O)c(C(=O)O)cn4C3CC3)CC2)cc(OC)c1OC`, the Ratio with Escherichia coli [3] came to 2.

For the molecule `O=C(O)c1cn(C2CC2)c2cc(N3CCN(C(=O)CCSc4nnnn4-c4ccc(F)c(F)c4F)CC3)c(F)cc2c1=O`, the Ratio in the test on Escherichia coli [3] is recorded as 2.

For `O=C(O)c1cn(C2CC2)c2cc(N3CCN(C(=O)CCSc4nnnn4-c4ccc(C(F)(F)F)cc4)CC3)c(F)cc2c1=O`, in the test with Escherichia coli [3], the Ratio was 2.

For `O=C(O)c1cn(C2CC2)c2cc(N3CCN(C(=O)CCSc4nnnn4-c4ccccc4)CC3)c(F)cc2c1=O`, the Ratio in the test on Escherichia coli [3] is 2.

Take `O=C(O)c1cn(C2CC2)c2cc(N3CCN(C(=O)CCSc4nnnn4-c4ccc(Br)cc4)CC3)c(F)cc2c1=O`: the Ratio in the test on Escherichia coli [3] is reported as 2.

In the case of `O=C(CSC(=S)N1CCN(c2cc3c(cc2F)c(=O)c(C(=O)O)cn3C2CC2)CC1)Nc1cccc(Cl)c1`, the MIC in the test on Staphylococcus aureus [4] and in the test with Pseudomonas aeruginosa was 0.024 mg/L (≈ 0.0417 µM) throughout.

For the molecule `COc1c(N2C[C@H]3CCCN(S(=O)(=O)c4ccccc4)[C@H]3C2)c(F)cc2c(=O)c(C(=O)O)cn(C3CC3)c12`, the MIC in the test on Staphylococcus aureus [5] and with Staphylococcus aureus [6] was under 2.64 mg/L each time.

As to `CCn1cc(C(=O)O)c(=O)c2cnc(N3CCN(Cn4nc(-c5ccc(OC)cc5)n(-c5ccc(C(C)(C)C)cc5)c4=S)CC3)nc21`, in the test on Escherichia coli [7], the minimum inhibitory concentration (MIC) came out at 0.98 mg/L (≈ 1.5 µM).

Regarding `CCn1cc(C(=O)O)c(=O)c2cc(F)c(N3CCN(Cn4nc(-c5ccccc5O)n(-c5ccc(OC)cc5)c4=S)CC3)cc21`, the MIC in the test with Klebsiella pneumoniae, with Escherichia coli [8] and with Staphylococcus aureus [9] was at most 0.125 mg/L in each case.

Consider `CCn1cc(C(=O)O)c(=O)c2cc(F)c(N3CCN(Cn4nc(-c5ccco5)oc4=S)CC3)cc21`, for which the minimal inhibitory concentration (MIC) in the test with Staphylococcus aureus [4], in the test with Escherichia coli [10] and with Pseudomonas aeruginosa was at most 0.125 mg/L in each case.

`CCn1cc(C(=O)O)c(=O)c2cc(F)c(N3CCN(Cn4nc(-c5ccncc5)n(-c5ccc(OC)cc5)c4=S)CC3)cc21`: the MIC in the test with Klebsiella pneumoniae, in the test on Escherichia coli [8] and with Staphylococcus aureus [9] was at most 0.125 mg/L in each case.

Turning to `CCn1cc(C(=O)O)c(=O)c2cc(F)c(N3CCN(Cn4nc(Cn5nc(C)n(/N=C/c6ccccc6O)c5=O)n(-c5ccccc5)c4=O)CC3)cc21`, the MIC was under 0.24 mg/L with Escherichia coli [11], under 0.24 mg/L in the test with Klebsiella pneumoniae and under 28 mg/L with Staphylococcus aureus [12].

For the molecule `CCn1cc(C(=O)O)c(=O)c2cc(F)c(N3CCN(Cn4nc(-c5cnccn5)oc4=S)CC3)cc21`, the MIC with Staphylococcus aureus [4], in the test on Escherichia coli [10] and in the test on Pseudomonas aeruginosa was at most 0.125 mg/L in each case.

Turning to `CCCCCOc1ccc(C2C(Cl)C(=O)N2c2cc3[nH]cc(C(=O)O)c(=O)c3cc2F)cc1` (stereo not drawn), the minimal inhibitory concentration (MIC) in the test on Staphylococcus aureus [4], with Escherichia coli [10], in the test with Enterococcus faecalis and in the test with Escherichia coli [13] was 0.02 mg/L (≈ 0.0423 µM) each time.

On to `Cc1ccc(-c2ccnc(Nc3ccc4c(=O)c(C(=O)O)cn(C5CC5)c4c3)n2)cc1C`, for which the MIC in the test on Staphylococcus aureus [14] amounted to 0.38 mg/L (≈ 0.891 µM).
